Where two headings read alike, the source gives them in different places.
Experiments:
[1] = target: T1, MOR–Rluc8 and Gαi1β1γ2–GFP2 (Homo sapiens, UniProt P35372+P63096); assay type: cell-based
[2] = target: T1, MOR–Rluc8 and Gαi1β1γ2–GFP2; assay type: cell-based; conditions: MOR in the apo state, mean ± s.d.

T1 sequence (P63096 2-354 limits assumed): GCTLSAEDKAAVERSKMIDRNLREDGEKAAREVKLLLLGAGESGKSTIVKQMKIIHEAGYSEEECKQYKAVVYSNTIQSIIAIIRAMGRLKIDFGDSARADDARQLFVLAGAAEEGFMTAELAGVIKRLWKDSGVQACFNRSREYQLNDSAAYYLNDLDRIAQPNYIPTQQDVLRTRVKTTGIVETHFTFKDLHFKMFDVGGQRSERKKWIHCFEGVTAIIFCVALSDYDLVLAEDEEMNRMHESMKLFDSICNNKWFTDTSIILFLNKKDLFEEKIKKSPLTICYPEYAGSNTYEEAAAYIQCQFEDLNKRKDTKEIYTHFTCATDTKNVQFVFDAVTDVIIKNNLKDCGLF
T1 sequence (P35372 whole entry): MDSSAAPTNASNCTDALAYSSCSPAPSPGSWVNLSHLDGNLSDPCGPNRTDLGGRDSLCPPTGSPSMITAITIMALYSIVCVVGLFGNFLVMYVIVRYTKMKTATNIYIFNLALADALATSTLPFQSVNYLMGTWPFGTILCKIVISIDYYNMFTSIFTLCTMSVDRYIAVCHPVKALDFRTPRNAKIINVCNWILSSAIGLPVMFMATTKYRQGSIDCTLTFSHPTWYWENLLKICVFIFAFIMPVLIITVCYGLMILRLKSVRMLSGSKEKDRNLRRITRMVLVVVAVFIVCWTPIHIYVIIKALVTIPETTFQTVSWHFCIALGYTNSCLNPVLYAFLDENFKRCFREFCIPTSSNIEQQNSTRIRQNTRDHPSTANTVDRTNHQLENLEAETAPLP
T1 sequence (P62873 2-340 partner limits assumed): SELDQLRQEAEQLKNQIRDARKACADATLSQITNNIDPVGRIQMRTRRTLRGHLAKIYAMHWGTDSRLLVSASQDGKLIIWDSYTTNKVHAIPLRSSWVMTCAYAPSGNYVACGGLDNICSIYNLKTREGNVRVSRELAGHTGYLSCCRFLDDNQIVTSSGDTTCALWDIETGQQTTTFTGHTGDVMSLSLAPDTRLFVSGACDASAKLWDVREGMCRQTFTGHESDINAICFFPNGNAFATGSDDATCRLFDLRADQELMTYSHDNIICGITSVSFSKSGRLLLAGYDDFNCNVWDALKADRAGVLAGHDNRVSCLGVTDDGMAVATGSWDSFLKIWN
T1 sequence (P59768 2-68 partner limits assumed): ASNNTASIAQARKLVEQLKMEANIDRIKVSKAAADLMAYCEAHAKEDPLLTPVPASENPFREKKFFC

## C[C@H]1CN(C[C@H](Cc2ccccc2)C(=O)NCC(=O)O)CC[C@@]1(C)c1cccc(O)c1 [Alvimopan]
[1]
  signal changes: too small to interpret

## Nc1nc2c(ncn2[C@@H]2O[C@H](COP(=O)(O)OP(O)(O)=S)[C@@H](O)[C@H]2O)c(=O)[nH]1 [GDPβS]
[2]; read-out: GDPβS EC50
  EC50: 57 ± 14 nM

## Nc1nc2c(ncn2[C@@H]2O[C@H](COP(=O)(O)OP(=O)(O)OP(O)(O)=S)[C@@H](O)[C@H]2O)c(=O)[nH]1 [GTPγS]
[2]; read-out: GTPγS EC50
  EC50: 3.8 ± 0.18 nM

Source: article PMC12711574 (Nature, 2025)
